According to patent publication US9708314B2, “Heterocyclic amide compound” (NISSAN CHEMICAL INDUSTRIES, LTD., priority 2013, dated 2017):

Experiments:
Type in all cases: in vivo
[1] = system: Echinochloa crus-galli var. crus-galli; assay: Test Example 4: herbicidal effect by application to foliage (diluvial soil, plastic box); conditions: foliage application, 320 g/ha
Summary of the method: (§1)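 Greenhouse plants (25° C. to 30° C., 14 d, diluvial soil) receive a foliar spray of water-diluted emulsifiable formulation at defined g/ha. Grading after 3 weeks uses a six-step herbicidal-ratio scale, with 4 covering 70% to <90% and 1 covering 5% to <20%.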

Digitaria ciliaris = assay: as above; conditions: foliage application, 320 g/ha
Summary of the method: as §1

Alopecurus myosuroides = assay: as above; conditions: foliage application, 320 g/ha
Summary of the method: as §1

Apera spica-venti. = assay: as above; conditions: foliage application, 320 g/ha
Summary of the method: as §1

Abutilon theophrasti = assay: as above; conditions: foliage application, 320 g/ha
Summary of the method: as §1

Galium spurium = assay: as above; conditions: foliage application, 320 g/ha
Summary of the method: as §1

Stellaria media = assay: as above; conditions: foliage application, 320 g/ha
Summary of the method: as §1

Veronica persica = assay: as above; conditions: foliage application, 320 g/ha
Summary of the method: as §1

Avena fatua = assay: as above; conditions: foliage application, 320 g/ha
Summary of the method: as §1

Setaria viridis = assay: as above; conditions: foliage application, 320 g/ha
Summary of the method: as §1

Amaranthus retroflexus = assay: as above; conditions: foliage application, 320 g/ha
Summary of the method: as §1

Lolium multiflorum Lam. = assay: as above; conditions: foliage application, 320 g/ha
Summary of the method: as §1

Chenopodium album = assay: as above; conditions: foliage application, 320 g/ha
Summary of the method: as §1

Brassica campestris L. = assay: Test Example 4: effect on crop by application to foliage (diluvial soil, plastic box); conditions: foliage application, 320 g/ha
Summary of the method: as §1

[2] = system: directly sowed Oryza sativa; assay: as above; conditions: foliage application, 320 g/ha
Summary of the method: as §1

[3] = system: Beta vulgaris ssp. vulgaris; assay: as above; conditions: foliage application, 320 g/ha
Summary of the method: as §1

Zea mays = assay: as above; conditions: foliage application, 320 g/ha
Summary of the method: as §1

Triticum aestivum = assay: as above; conditions: foliage application, 320 g/ha
Summary of the method: as §1

Glycine max = assay: as above; conditions: foliage application, 320 g/ha
Summary of the method: as §1

[4] = system: directly sowed Oryza sativa; assay: Test Example 3: effect on crop by application to foliage (Wagner pot, water depth 0.1-0.5 cm); conditions: Nineteenth Table; application to foliage; application herbicide amount 320 g/ha
Summary of the method: (§2)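 Post-emergence foliar application at a stated g/ha rate to plants grown 14 days from seed in alluvial soil, greenhouse 25–30 °C. Visual score after 3 weeks: 0 (≤5% effect) through 5 (≥90%).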

[5] = system: Echinochloa crus-galli var. crus-galli; assay: Test Example 3: herbicidal effect by application to foliage (Wagner pot, water depth 0.1-0.5 cm); conditions: Nineteenth Table; application to foliage; application herbicide amount 320 g/ha
Summary of the method: as §2

Leptochloa chinensis = assay: as above; conditions: Nineteenth Table; application to foliage; application herbicide amount 320 g/ha
Summary of the method: as §2

Cyperus difformis = assay: as above; conditions: Nineteenth Table; application to foliage; application herbicide amount 320 g/ha
Summary of the method: as §2

Structure (SMILES) | H (Echinochloa crus-galli var. crus-galli) herbicidal effect grade [1] | F (Digitaria ciliaris) herbicidal effect grade (Digitaria ciliaris) | J (Alopecurus myosuroides) herbicidal effect grade (Alopecurus myosuroides) | L (Apera spica-venti.) herbicidal effect grade (Apera spica-venti.) | M (Abutilon theophrasti) herbicidal effect grade (Abutilon theophrasti) | Q (Galium spurium) herbicidal effect grade (Galium spurium) | P (Stellaria media) herbicidal effect grade (Stellaria media) | R (Veronica persica) herbicidal effect grade (Veronica persica) | I (Avena fatua) herbicidal effect grade (Avena fatua) | G (Setaria viridis) herbicidal effect grade (Setaria viridis) | N (Amaranthus retroflexus) herbicidal effect grade (Amaranthus retroflexus) | K (Lolium multiflorum Lam.) herbicidal effect grade (Lolium multiflorum Lam.) | O (Chenopodium album) herbicidal effect grade (Chenopodium album) | g (Brassica campestris L.) effect on crop grade (Brassica campestris L.) | d (directly sowed Oryza sativa) effect on crop grade [2] | f (Beta vulgaris ssp. vulgaris) effect on crop grade [3] | b (Zea mays) effect on crop grade (Zea mays) | e (Triticum aestivum) effect on crop grade (Triticum aestivum) | c (Glycine max) effect on crop grade (Glycine max) | b (effect on crop grade) [4] | also measured
CSCc1nnc2c(C(=O)Nc3nnnn3C)ccc(C(F)(F)F)n12 [2-029] | 5 (Herbicidal ratio of 90% or more (almost completely withered)) | 5 (Herbicidal ratio of 90% or more (almost completely withered)) | 5 (Herbicidal ratio of 90% or more (almost completely withered)) | 5 (Herbicidal ratio of 90% or more (almost completely withered)) | 5 (Herbicidal ratio of 90% or more (almost completely withered)) | 4 (Herbicidal ratio of 70% or more and less than 90%) | 5 (Herbicidal ratio of 90% or more (almost completely withered)) | 5 (Herbicidal ratio of 90% or more (almost completely withered)) | 5 (Herbicidal ratio of 90% or more (almost completely withered)) | 5 (Herbicidal ratio of 90% or more (almost completely withered)) | 5 (Herbicidal ratio of 90% or more (almost completely withered)) | 5 (Herbicidal ratio of 90% or more (almost completely withered)) | 5 (Herbicidal ratio of 90% or more (almost completely withered)) | 5 (Herbicidal ratio of 90% or more (almost completely withered)) | 5 (Herbicidal ratio of 90% or more (almost completely withered)) | 5 (Herbicidal ratio of 90% or more (almost completely withered)) | 5 (Herbicidal ratio of 90% or more (almost completely withered)) | 5 (Herbicidal ratio of 90% or more (almost completely withered)) | 4 (Herbicidal ratio of 70% or more and less than 90%) | 5 (Herbicidal ratio of 90% or more (almost completely withered)) | H (herbicidal effect grade) [5]: 5 (Herbicidal ratio of 90% or more (almost completely withered)); D (herbicidal effect grade) (Leptochloa chinensis): 5 (Herbicidal ratio of 90% or more (almost completely withered)); E (herbicidal effect grade) (Cyperus difformis): 5 (Herbicidal ratio of 90% or more (almost completely withered))
Cn1nnnc1NC(=O)c1ccc(C(F)(F)F)n2c(CSCC(F)(F)F)nnc12 [2-030] | 5 (Herbicidal ratio of 90% or more (almost completely withered)) | 5 (Herbicidal ratio of 90% or more (almost completely withered)) | 3 (Herbicidal ratio of 40% or more and less than 70%) | 5 (Herbicidal ratio of 90% or more (almost completely withered)) | 5 (Herbicidal ratio of 90% or more (almost completely withered)) | 3 (Herbicidal ratio of 40% or more and less than 70%) | 5 (Herbicidal ratio of 90% or more (almost completely withered)) | 5 (Herbicidal ratio of 90% or more (almost completely withered)) | 4 (Herbicidal ratio of 70% or more and less than 90%) | 5 (Herbicidal ratio of 90% or more (almost completely withered)) | 5 (Herbicidal ratio of 90% or more (almost completely withered)) | 3 (Herbicidal ratio of 40% or more and less than 70%) | 5 (Herbicidal ratio of 90% or more (almost completely withered)) | 5 (Herbicidal ratio of 90% or more (almost completely withered)) | 4 (Herbicidal ratio of 70% or more and less than 90%) | 5 (Herbicidal ratio of 90% or more (almost completely withered)) | 5 (Herbicidal ratio of 90% or more (almost completely withered)) | 3 (Herbicidal ratio of 40% or more and less than 70%) | 0 (Herbicidal ratio of 5% or less (almost no effect)) | 5 (Herbicidal ratio of 90% or more (almost completely withered)) | H (herbicidal effect grade) [5]: 4 (Herbicidal ratio of 70% or more and less than 90%); D (herbicidal effect grade) (Leptochloa chinensis): 5 (Herbicidal ratio of 90% or more (almost completely withered)); E (herbicidal effect grade) (Cyperus difformis): 4 (Herbicidal ratio of 70% or more and less than 90%)
CC[S+]([O-])c1nnc2c(C(=O)Nc3nnnn3C)ccc(C(F)(F)F)n12 (stereo not drawn) [2-031] | 5 (Herbicidal ratio of 90% or more (almost completely withered)) | 5 (Herbicidal ratio of 90% or more (almost completely withered)) | 4 (Herbicidal ratio of 70% or more and less than 90%) | 5 (Herbicidal ratio of 90% or more (almost completely withered)) | 5 (Herbicidal ratio of 90% or more (almost completely withered)) | 5 (Herbicidal ratio of 90% or more (almost completely withered)) | 5 (Herbicidal ratio of 90% or more (almost completely withered)) | 5 (Herbicidal ratio of 90% or more (almost completely withered)) | 5 (Herbicidal ratio of 90% or more (almost completely withered)) | 5 (Herbicidal ratio of 90% or more (almost completely withered)) | 5 (Herbicidal ratio of 90% or more (almost completely withered)) | 5 (Herbicidal ratio of 90% or more (almost completely withered)) | 5 (Herbicidal ratio of 90% or more (almost completely withered)) | 5 (Herbicidal ratio of 90% or more (almost completely withered)) | 5 (Herbicidal ratio of 90% or more (almost completely withered)) | 5 (Herbicidal ratio of 90% or more (almost completely withered)) | 5 (Herbicidal ratio of 90% or more (almost completely withered)) | 5 (Herbicidal ratio of 90% or more (almost completely withered)) | 5 (Herbicidal ratio of 90% or more (almost completely withered)) | 5 (Herbicidal ratio of 90% or more (almost completely withered)) | H (herbicidal effect grade) [5]: 5 (Herbicidal ratio of 90% or more (almost completely withered)); D (herbicidal effect grade) (Leptochloa chinensis): 5 (Herbicidal ratio of 90% or more (almost completely withered)); E (herbicidal effect grade) (Cyperus difformis): 5 (Herbicidal ratio of 90% or more (almost completely withered))
